Measurements: patent US20140009887A1, “FLUORINATED OXIRANES AS HEAT TRANSFER FLUIDS” (3M INNOVATIVE PROPERTIES COMPANY, priority 2011, published 2014)

Assays:
[1] = Atmospheric lifetime from kinetic studies for reaction with hydroxyl radical; format: physicochemical; conditions: based on kinetic studies for reaction with hydroxyl radical
Source text: The atmospheric lifetimes of C6F14 and CF3OCF(CF3)CF2OCF2OCF3 are reported as 3200 years and 800 years, respectively (see Climate Change 2007: The Physical Science Basis. Contribution of Working Group I to the Fourth Assessment Report of the Intergovernmental Panel on Climate Change, Solomon, S., D. Qin, M. Manning, Z. Chen, M. Marquis, K. B. Averyt, M. Tignor and H. L. Miller (eds.), Cambridge University Press, Cambridge, United Kingdom and New York, N.Y., USA, 996 pp, 2007.). […] Based on kinetic studies for reaction with hydroxyl radical, 2,3-difluoro-2-(1,2,2,2-tetrafluoro-l-trifluoromethyl-ethyl)-3-trifluoromethyl-oxirane has an estimated atmospheric lifetime of 20 years.

Kinematic viscosity = format: physicochemical; conditions: for Viscosity @ 25° C.: kinematic viscosity; for Low temperature kinematic viscosity (in words): compared with fluids close in boiling point, FIG. 1 and FIG. 2
Source text: (§1) The useful liquid range (between the pour point and the normal boiling point) of the fluorinated oxiranes (Examples 1-3) are similar to perfluorocarbons (Comparative 1), perfluoroketones (Comparative 2), and perfluoroethers (Comparative 3). The specific heat capacity of the Comparatives is also very similar to the exemplary fluorinated oxiranes.
The viscosity impacts the heat transfer performance and liquid pumping power.

Specific heat capacity = format: physicochemical
Source text: as §1

[2] = Normal boiling point (thermophysical properties); format: physicochemical
Source text: as §1

Vapor pressure = format: physicochemical
Source text: as §1

[3] = Pour point (thermophysical properties); format: physicochemical
Source text: as §1

[4] = reported in Climate Change 2007, IPCC Fourth Assessment Report; cited from earlier work
[5] = Hydrolytic stability: fluoride ion in water phase after aging with deionized water; format: physicochemical; conditions: for F concentration after 30 min at 25° C. / F concentration after 4 hours at 50° C.: 5 g material + 5 g deionized water; for F concentration after 30 min at 25° C.: agitated 30 min at room temperature (~25° C.); for F concentration after 4 hours at 50° C.: monel pressure vessel
Protocol: Example 1 and Comparatives 1 and 2 were tested for hydrolytic stability at room temperature (˜25° C.) and 50° C. Room temperature testing was conducted by placing 5 grams of test material along with 5 grams of deionized water in new polypropylene, centrifuge tubes which were then sealed and agitated for 30 minutes using a shaker set at low speed. Elevated temperature testing was carried out by placing 5 grams of test material along with 5 grams deionized water in a clean monel pressure vessel which was sealed and placed in a convection oven set at 50° C. for 4 hours. After aging, the fluoride concentrations were determined by mixing 0.5 ml of the water phase from each sample with 0.5 ml of TISAB II buffer solution and measuring fluoride ion concentration using a calibrated fluoride selective electrode connected to a pH/millivolt meter (both the electrode and buffer solutions are available from Thermo Scientific Orion, Beverly, Mass.). The hydrolytic stability of Example 1, Comparative Example 1 and Comparative Example 2 were determined and are reported as parts per million by weight (ppmw) of fluorine in Table III below.

[6] = Dielectric breakdown strength according to ASTM D877; format: physicochemical; conditions: ASTM D877, model LD60 liquid dielectric test set
Protocol: In applications where the direct contact of energized, electronic components by the heat transfer fluid occurs, whether intended or otherwise, the need exists for fluids with dielectric breakdown strengths greater than around 8 megavolts/meter (MV/m), measured according to ASTM D877. Such high dielectric breakdown strengths help to avoid damage to the electronic components through short circuits.
The dielectric breakdown strengths of Example 1 and 3 were determined according to ASTM D877, using a model LD60 liquid dielectric test set available from Phenix Technologies, Accident, Md. The breakdown strengths for example 1 and 3 were 15.5 MV/m and 17.3 MV/m respectively.

FC(F)(F)C(F)(F)C1(F)OC1(C(F)(F)F)C(F)(F)F (stereo not drawn) [2-fluoro-2-pentafluoroethyl-3,3-bis-trifluoromethyl-oxirane]
Estimated atmospheric lifetime [1]: 77 years

CCOC(F)(C(F)(F)C(F)(F)C(F)(F)F)C(F)(C(F)(F)F)C(F)(F)F (stereo not drawn) [Comparative 3, 2-trifluoromethyl-3-ethoxydodecafluorohexane]
Viscosity @ 25° C. (Kinematic viscosity): 7.7 ×10^−7 m^2/s
Specific Heat Capacity (Specific heat capacity): 1128 J/kg-K
Normal Boiling Point [2]: 128 °C
Vapor Pressure @ 25° C. (Vapor pressure): 2.1 kPa
Pour Point [3]: −100 °C

FC(F)(F)OC(F)(F)OC(F)(F)C(F)(OC(F)(F)F)C(F)(F)F (stereo not drawn) [CF3OCF(CF3)CF2OCF2OCF3]
Atmospheric lifetime [4]: 800 years

O=C(C(F)(F)C(F)(F)F)C(F)(C(F)(F)F)C(F)(F)F [Comparative 2, Dodecafluoro-2-methylpentan-3-one]
Viscosity @ 25° C. (Kinematic viscosity): 4.0 ×10^−7 m^2/s
Specific Heat Capacity (Specific heat capacity): 1103 J/kg-K
Normal Boiling Point [2]: 49 °C
Vapor Pressure @ 25° C. (Vapor pressure): 40.4 kPa
F concentration after 30 min at 25° C. [5]: 1.13 ppmw
F concentration after 4 hours at 50° C. [5]: 5.89 ppmw
Pour Point [3]: −108 °C

FC(F)(F)C(F)(F)C(F)(F)C(F)(F)C(F)(F)C(F)(F)F [Comparative 1, Perfluorohexane]
Viscosity @ 25° C. (Kinematic viscosity): 3.8 ×10^−7 m^2/s
Atmospheric lifetime [4]: 3200 years
Specific Heat Capacity (Specific heat capacity): 1100 J/kg-K
Normal Boiling Point [2]: 56 °C
Vapor Pressure @ 25° C. (Vapor pressure): 30.0 kPa
F concentration after 30 min at 25° C. [5]: 0.09 ppmw
F concentration after 4 hours at 50° C. [5]: 0.23 ppmw
Pour Point [3]: −90 °C

FC(F)(F)C1(F)OC1(F)C(F)(C(F)(F)F)C(F)(F)F (stereo not drawn) [Example 1, 2,3-difluoro-2-(1,2,2,2-tetrafluoro-1-trifluoromethyl-ethyl)-3-trifluoromethyl-oxirane]
Viscosity @ 25° C. (Kinematic viscosity): 3.7 ×10^−7 m^2/s
Low temperature kinematic viscosity (in words) (Kinematic viscosity): better low temperature viscosity
Estimated atmospheric lifetime [1]: 20 years
Dielectric breakdown strength [6]: 15.5 MV/m
Specific Heat Capacity (Specific heat capacity): 1145 J/kg-K
Normal Boiling Point [2]: 51.7 °C
Vapor Pressure @ 25° C. (Vapor pressure): 36.0 kPa
F concentration after 30 min at 25° C. [5]: 0.14 ppmw
F concentration after 4 hours at 50° C. [5]: 0.13 ppmw
Hydrolytic stability (comparison in words) ([5]; room temperature and 50° C.): comparable to that of comparative 1 and better than comparative 2
Pour Point [3]: −145 °C

HFP Trimer-Oxirane [Example 3]
Viscosity @ 25° C. (Kinematic viscosity): 12.5 ×10^−7 m^2/s
Low temperature kinematic viscosity (in words) (Kinematic viscosity): acceptable viscosity for heat transfer applications as low as −40 °C
Dielectric breakdown strength [6]: 17.3 MV/m
Specific Heat Capacity (Specific heat capacity): 869 J/kg-K
Normal Boiling Point [2]: 121.9 °C
Vapor Pressure @ 25° C. (Vapor pressure): 1.6 kPa
Pour Point [3]: −103 °C

FC(F)(F)C(F)(F)C(F)(F)N(C(F)(F)C(F)(F)C(F)(F)F)C(F)(F)C(F)(F)C(F)(F)F [Comparative 4, Perfluorotripropylamine]
Viscosity @ 25° C. (Kinematic viscosity): 7.5 ×10^−7 m^2/s
Specific Heat Capacity (Specific heat capacity): 1100 J/kg-K
Normal Boiling Point [2]: 130 °C
Vapor Pressure @ 25° C. (Vapor pressure): 1.4 kPa
Pour Point [3]: −50 °C

FC1(F)C(F)(F)C(F)(F)C2(F)OC2(F)C1(F)F (stereo not drawn) [Example 2, 1,2,2,3,3,4,4,5,5,6-decafluoro-7-oxa-bicyclo [4.1.0]heptane]
Viscosity @ 25° C. (Kinematic viscosity): 6.6 ×10^−7 m^2/s
Low temperature kinematic viscosity (in words) (Kinematic viscosity): better low temperature viscosity
Specific Heat Capacity (Specific heat capacity): 1083 J/kg-K
Normal Boiling Point [2]: 56.1 °C
Vapor Pressure @ 25° C. (Vapor pressure): 30.3 kPa
Pour Point [3]: −88 °C
